Source: US10975083B2, “Blood-brain barrier-penetrant dopamine-β-hydroxylase inhibitors” (BIAL—PORTELA & Cᵃ, S.A., priority 2016, dated 2021)
Marks after values point to notes of the source that are not given here.

How the values were obtained:
[1] = molecular target: T1, Dopamine beta hydroxylase (Homo sapiens, UniProt P09172); test: DβH activity in human plasma; type: biochemical; details: inhibitor 0.1 μM
T1 construct: Human plasma samples were obtained from healthy donors; tissue Instituto Portugues do Sangue Transplantacao, Porto; host or cells: human plasma from healthy donors
T1 sequence (P09172 40-617 limits assumed): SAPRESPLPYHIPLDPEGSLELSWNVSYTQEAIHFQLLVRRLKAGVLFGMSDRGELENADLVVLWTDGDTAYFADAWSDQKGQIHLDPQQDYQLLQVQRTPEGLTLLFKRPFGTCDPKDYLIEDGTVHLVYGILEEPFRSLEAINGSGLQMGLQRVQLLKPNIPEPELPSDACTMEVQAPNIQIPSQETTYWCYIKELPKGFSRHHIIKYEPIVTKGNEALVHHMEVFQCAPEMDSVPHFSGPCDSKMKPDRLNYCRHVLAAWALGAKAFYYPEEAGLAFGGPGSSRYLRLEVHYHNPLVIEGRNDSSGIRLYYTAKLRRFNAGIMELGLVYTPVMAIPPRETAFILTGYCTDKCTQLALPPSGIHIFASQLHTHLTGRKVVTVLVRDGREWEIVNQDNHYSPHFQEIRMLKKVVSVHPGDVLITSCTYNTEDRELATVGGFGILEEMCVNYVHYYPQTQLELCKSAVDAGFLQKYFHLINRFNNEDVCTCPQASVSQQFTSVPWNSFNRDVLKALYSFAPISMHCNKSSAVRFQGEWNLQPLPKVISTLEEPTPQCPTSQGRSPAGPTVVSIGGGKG
Method: Furthermore, the ability of a compound to inhibit DβH activity may be assessed in human plasma using the following assay. […]. Dopamine beta hydroxylase activity in human plasma was measured by the method previously developed (Nagatsu, T. and Udenfriend, S. Photometric assay of dopamine-β-hydroxylase activity in human blood. Clin. Chem. 18(9) 980-983, 1972) with minor modifications. Catalase, N-ethylmaleimide, tyramine, disodium fumarate, pargyline, sodium acetate, ascorbic acid, copper sulfate and octopamine were obtained from Sigma Chemical Co., St. Louis, Mo. 63178. Human plasma samples were obtained from healthy donors (Instituto Portugues do Sangue Transplantacao, Centro Sangue Transplantacao, Porto, Portugal). From date of collection, plasma was stored at −80° C. until use. Test compounds were initially prepared in dimethyl sulfoxide at a concentration of 10 mM and diluted in dimethyl sulfoxide to the required concentrations. […] Absorbance was measured at […] in a 96-well plate by use of a SpectraMAX plus 384 (Molecular Devices) with software SOFTmax® PRO Software 5.3 spectrophotometer. Absorbance was linear with octopamine concentration from 0.5 to 20 μg/ml. Dopamine beta hydroxylase activity is determined as nmol of octopamine formed/ml of plasma/hour and effect of compounds is presented as % control. […]

[2] = molecular target: T2, DβH (Homo sapiens, UniProt P09172); test: DβH inhibition cell assay (SK-N-SH cellular homogenates, tyramine to octopamine); type: biochemical; details: SK-N-SH cell homogenate; for remaining activity at 0.1 µM: inhibitor 0.1 μM, read-out: DβH activity in % of Ctrl (0.1 μM); for remaining activity at 1 µM: inhibitor 1 μM, read-out: DβH activity in % of Ctrl (1 μM); for remaining activity at 10 µM: inhibitor 10 μM, read-out: DβH activity in % of Ctrl (10 μM)
T2 construct: reaction mixture (total volume 500 μl) contained: cellular homogenate (75 μg total protein); host or cells: SK-N-SH cell homogenate
T2 sequence (P09172 1-617): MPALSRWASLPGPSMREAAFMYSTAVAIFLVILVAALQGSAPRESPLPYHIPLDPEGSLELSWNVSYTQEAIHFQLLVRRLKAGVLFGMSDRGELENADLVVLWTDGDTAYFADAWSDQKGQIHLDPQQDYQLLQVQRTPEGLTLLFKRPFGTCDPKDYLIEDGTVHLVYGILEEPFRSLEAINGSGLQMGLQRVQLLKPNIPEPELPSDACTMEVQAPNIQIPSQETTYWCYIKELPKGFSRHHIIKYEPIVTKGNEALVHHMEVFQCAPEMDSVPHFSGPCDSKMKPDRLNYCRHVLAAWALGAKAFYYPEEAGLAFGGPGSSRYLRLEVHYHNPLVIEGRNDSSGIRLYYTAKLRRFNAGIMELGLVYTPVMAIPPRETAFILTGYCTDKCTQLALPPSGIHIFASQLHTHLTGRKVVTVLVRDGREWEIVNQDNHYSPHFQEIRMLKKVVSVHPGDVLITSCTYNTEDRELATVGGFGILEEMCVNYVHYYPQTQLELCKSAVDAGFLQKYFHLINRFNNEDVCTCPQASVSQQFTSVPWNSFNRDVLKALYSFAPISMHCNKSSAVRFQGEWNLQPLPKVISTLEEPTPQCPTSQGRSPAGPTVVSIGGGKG

[3] = in vitro; details: dog, MDCK, pH 7.4

Row | remaining activity at 0.1 µM [2] | remaining activity at 1 µM [2] | Papp A→B at 30 min, 50 μM [3] | remaining activity at 10 µM [2] | Structure (SMILES) | DβH activity in % of control in human plasma assay (numbers in brackets) [1]
1 | 12.3% | 0% | 63.1 ×10⁻⁶ cm/s | – | NC(=S)N1CC2CC2(c2cc(F)cc(F)c2)C1 (stereo not shown) [Example 34, 1-(3,5-difluorophenyl)-3-azabicyclo[3.1.0]hexane-3-carbothioamide] | –
2 | – | 20.8% | 126 ×10⁻⁶ cm/s | – | NC(=S)N1C[C@H]2C[C@@]2(c2cccs2)C1 [Example 27, (1S,5S)-1-(thiophen-2-yl)-3-azabicyclo[3.1.0]hexane-3-carbothioamide] | –
3 | 59.7% | 2.4% | 79.4 ×10⁻⁶ cm/s | – | NC(=S)N1CC2CC2(c2ccc(F)cc2F)C1 (stereo not shown) [Example 37, 1-(2,4-difluorophenyl)-3-azabicyclo[3.1.0]hexane-3-carbothioamide] | –
4 | – | 44.1% | 100 ×10⁻⁶ cm/s | – | CNC(=S)N1CC(c2cc(F)cc(F)c2)CC1=O (stereo not shown) [Example 42, 4-(3,5-difluorophenyl)-N-methyl-2-oxopyrrolidine-1-carbothioamide] | –

Second part, the molecule before the results:

Row | Structure (SMILES) | remaining activity at 0.1 µM [2] | remaining activity at 1 µM [2] | Papp A→B at 30 min, 50 μM [3] | remaining activity at 10 µM [2] | DβH activity in % of control in human plasma assay (numbers in brackets) [1]
5 | Cc1[nH]c(=S)n2c1[C@@H]1C[C@]1(c1cc(Br)ccc1F)C2 [Example 122, (5aS,6aR)-5a-(5-bromo-2-fluorophenyl)-1-methyl-5,5a,6,6a-tetrahydrocyclopropa[3,4]pyrrolo[1,2-c]imidazole-3 (2H)-thione] | – | – | – | – | (9.8)* % of Ctrl
6 | CC1(c2ccccc2)CCN(C(N)=S)C1 (stereo not shown) [Example 7, 3-methyl-3-phenylpyrrolidine-1-carbothioamide] | 84.8% | 37.7% | 100 ×10⁻⁶ cm/s | 7.5% | –
7 | NC(=S)N1CCC(c2cc(F)cc(F)c2F)C1 (stereo not shown) [Example 24, 3-(2,3,5-trifluorophenyl)pyrrolidine-1-carbothioamide] | 40.2% | 15.9% | 100 ×10⁻⁶ cm/s | – | –
8 | NC(=S)N1CCC(c2cccs2)C1 (stereo not shown) [Example 2, 3-(thiophen-2-yl)pyrrolidine-1-carbothioamide] | 54.9% | – | 126 ×10⁻⁶ cm/s | 0% | –
9 | NC(=S)N1CCC(c2cc(F)cc(F)c2)C1 (stereo not shown) [Example 12, 3-(3,5-Difluorophenyl)pyrrolidine-1-carbothioamide] | 63% | 11.5% | 79.4 ×10⁻⁶ cm/s | 0% | –
